In patent US6355799B1, “Substituted benzene compounds, process for their preparation, and herbicidal and defoliant compositions containing them” (ISK Americas Incorporated, priority 1997, dated 2002):

How the values were obtained:
Format in all cases: in vivo
[1] = system: green foxtail (Setaria viridis, SETVI); experiment: Pre-emerge test, greenhouse herbicide activity screening; details: rated 14 days after application, 0 = no damage, 100 = complete death
Procedure, shortened: (§1)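 Visual ratings on a 0-100 scale (0 no damage, 100 all plants dead) were taken at 14 days after treatment. Rates of 15-1000 g ai/ha in acetone, 187 l/ha, were sprayed onto soil one day after planting (pre-emerge) or onto 2-3 leaf plants with 0.25% v/v surfactant (post-emerge).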

[2] = system: large crabgrass (Digitaria sanguinalis, DIGSA); experiment: as above; details: rated 14 days after application, 0 = no damage, 100 = complete death
Procedure, shortened: as §1

[3] = system: lambsquarters (Chenopodium album, CHEAL); experiment: as above; details: rated 14 days after application, 0 = no damage, 100 = complete death
Procedure, shortened: as §1

[4] = system: barnyardgrass (Echinochloa crus-galli, ECHCG); experiment: as above; details: rated 14 days after application, 0 = no damage, 100 = complete death
Procedure, shortened: as §1

[5] = system: velvetleaf (Abutilon theophrasti, ABUTH); experiment: as above; details: rated 14 days after application, 0 = no damage, 100 = complete death
Procedure, shortened: as §1

[6] = system: sicklepod (Cassia obtusifolia, CASOB); experiment: as above; details: rated 14 days after application, 0 = no damage, 100 = complete death
Procedure, shortened: as §1

[7] = system: ivyleaf morningglory (Ipomoea hederacea, IPOHE); experiment: as above; details: rated 14 days after application, 0 = no damage, 100 = complete death
Procedure, shortened: as §1

[8] = system: johnsongrass (Sorghum halepense, SORHA); experiment: as above; details: rated 14 days after application, 0 = no damage, 100 = complete death
Procedure, shortened: as §1

[9] = system: redroot pigweed (Amaranthus retroflexus, AMARE); experiment: Post-emerge test, greenhouse herbicide activity screening; details: post-emerge, 14 days after application, rating scale 0-100
Procedure, shortened: (§2)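 Fourteen days after spraying, crop and weed injury was graded visually from 0, no effect, to 100, every plant dead. Test substances were dissolved in acetone and applied at 15–1000 g ai/ha with a flat-fan nozzle. Application was either pre-emergence, one day after sowing, or post-emergence at the 2–3 leaf stage.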

[10] = system: green foxtail (Setaria viridis, SETVI); experiment: as above; details: post-emerge, 14 days after application, rating scale 0-100
Procedure, shortened: as §2

[11] = system: large crabgrass (Digitaria sanguinalis, DIGSA); experiment: as above; details: post-emerge, 14 days after application, rating scale 0-100
Procedure, shortened: as §2

[12] = system: lambsquarters (Chenopodium album, CHEAL); experiment: as above; details: post-emerge, 14 days after application, rating scale 0-100
Procedure, shortened: as §2

[13] = system: barnyardgrass (Echinochloa crus-galli, ECHCG); experiment: as above; details: post-emerge, 14 days after application, rating scale 0-100
Procedure, shortened: as §2

[14] = system: velvetleaf (Abutilon theophrasti, ABUTH); experiment: as above; details: post-emerge, 14 days after application, rating scale 0-100
Procedure, shortened: as §2

[15] = system: sicklepod (Cassia obtusifolia, CASOB); experiment: as above; details: post-emerge, 14 days after application, rating scale 0-100
Procedure, shortened: as §2

[16] = system: ivyleaf morningglory (Ipomoea hederacea, IPOHE); experiment: as above; details: post-emerge, 14 days after application, rating scale 0-100
Procedure, shortened: as §2

[17] = system: johnsongrass (Sorghum halepense, SORHA); experiment: as above; details: post-emerge, 14 days after application, rating scale 0-100
Procedure, shortened: as §2

[18] = system: common ragweed (Ambrosia artemisizfolia L., AMBEL); experiment: as above; details: post-emerge, 14 days after application, rating scale 0-100
Procedure, shortened: as §2

[19] = system: redroot pigweed (Amaranthus retroflexus, AMARE); experiment: Pre-emerge test, greenhouse herbicide activity screening; details: rated 14 days after application, 0 = no damage, 100 = complete death
Procedure, shortened: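 Rating: 0–100 visual injury, 14 DAA. Application: acetone, 187 l/ha, 15–1000 g ai/ha, flat-fan track sprayer with nozzle 40–45 cm above soil or canopy. Post-emerge runs used 0.25% v/v surfactant on 2–3 leaf plants.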

[20] = system: upland rice (Oryza sp., var. Tebonnet, RICE); experiment: Post-emerge test, crop safety; details: post-emerge, 14 days after application, rating scale 0-100
Procedure, shortened: as §1

[21] = system: field corn (Zea mays L., var. Dekalb 535, CORN); experiment: Post-emerge test, crop safety; details: post-emerge, 14 days after application, rating scale 0-100
Procedure, shortened: as §1

[22] = system: upland rice (Oryza sp., var. Tebonnet, RICE); experiment: Pre-emerge test, crop safety; details: rated 14 days after application, 0 = no damage, 100 = complete death
Procedure, shortened: (§3)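 Sandy loam pots; pre-emerge: sown 1 d pre-spray, surface-watered after, then bottom-watered. Post-emerge: sown 8–21 d before, 2–3 leaf stage, + 0.25% v/v NIS, bottom-watered. Acetone, 187 l/ha track spray, 15–1000 g ai/ha. 0–100 injury score, day 14.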

[23] = system: field corn (Zea mays L., var. Dekalb 535, CORN); experiment: Pre-emerge test, crop safety; details: rated 14 days after application, 0 = no damage, 100 = complete death
Procedure, shortened: as §3

In the case of `COc1c(Cl)cc(F)c(-n2c(=O)cc(C(F)(F)F)n(C)c2=O)c1NC(=O)c1ccc(C(F)(F)F)cc1` [2-33], the “Pre-emerge Herbicidal Activity, phytotoxicity rating (0-100), SETVI” value ([1]; 63 g ai/ha) was 100, the “Pre-emerge Herbicidal Activity, phytotoxicity rating (0-100), SETVI” value ([1]; 250 g ai/ha) was 100 and the “Pre-emerge Herbicidal Activity, phytotoxicity rating (0-100), DIGSA” value ([2]; 63 g ai/ha) was 100. For the same compound, the “Pre-emerge Herbicidal Activity, phytotoxicity rating (0-100), DIGSA” value ([2]; 250 g ai/ha) was 100, the “Pre-emerge Herbicidal Activity, phytotoxicity rating (0-100), CHEAL” value ([3]; 63 g ai/ha) was 100 and the “Pre-emerge Herbicidal Activity, phytotoxicity rating (0-100), CHEAL” value ([3]; 250 g ai/ha) was 100. The “Pre-emerge Herbicidal Activity, phytotoxicity rating (0-100), ECHCG” value ([4]; 63 g ai/ha) was 30, the “Pre-emerge Herbicidal Activity, phytotoxicity rating (0-100), ECHCG” value ([4]; 250 g ai/ha) was 95 and the “Pre-emerge Herbicidal Activity, phytotoxicity rating (0-100), ABUTH” value ([5]; 63 g ai/ha) was 100. For the same compound, the “Pre-emerge Herbicidal Activity, phytotoxicity rating (0-100), ABUTH” value ([5]; 250 g ai/ha) was 100, the “Pre-emerge Herbicidal Activity, phytotoxicity rating (0-100), CASOB” value ([6]; 63 g ai/ha) was 100 and the “Pre-emerge Herbicidal Activity, phytotoxicity rating (0-100), CASOB” value ([6]; 250 g ai/ha) was 100. The “Pre-emerge Herbicidal Activity, phytotoxicity rating (0-100), IPOHE” value ([7]; 63 g ai/ha) was 100, the “Pre-emerge Herbicidal Activity, phytotoxicity rating (0-100), IPOHE” value ([7]; 250 g ai/ha) was 100 and the “Pre-emerge Herbicidal Activity, phytotoxicity rating (0-100), SORHA” value ([8]; 63 g ai/ha) was 60. The “Pre-emerge Herbicidal Activity, phytotoxicity rating (0-100), SORHA” value ([8]; 250 g ai/ha) was 90, the “phytotoxicity rating AMARE” value ([9]; 63 g ai/ha) was 90 and the “phytotoxicity rating AMARE” value ([9]; 250 g ai/ha) was 95. For the same compound, the “phytotoxicity rating SETVI” value ([10]; 63 g ai/ha) was 50, the “phytotoxicity rating SETVI” value ([10]; 250 g ai/ha) was 40 and the “phytotoxicity rating DIGSA” value ([11]; 63 g ai/ha) was 0. The “phytotoxicity rating DIGSA” value ([11]; 250 g ai/ha) was 40, the “phytotoxicity rating CHEAL” value ([12]; 63 g ai/ha) was 80 and the “phytotoxicity rating CHEAL” value ([12]; 250 g ai/ha) was 95. The “phytotoxicity rating ECHCG” value ([13]; 63 g ai/ha) was 10, the “phytotoxicity rating ECHCG” value ([13]; 250 g ai/ha) was 60 and the “phytotoxicity rating ABUTH” value ([14]; 63 g ai/ha) was 100. For the same compound, the “phytotoxicity rating ABUTH” value ([14]; 250 g ai/ha) was 100, the “phytotoxicity rating CASOB” value ([15]; 63 g ai/ha) was 70 and the “phytotoxicity rating CASOB” value ([15]; 250 g ai/ha) was 80. The “phytotoxicity rating IPOHE” value ([16]; 63 g ai/ha) was 100, the “phytotoxicity rating IPOHE” value ([16]; 250 g ai/ha) was 100 and the “phytotoxicity rating SORHA” value ([17]; 63 g ai/ha) was 0. The “phytotoxicity rating SORHA” value ([17]; 250 g ai/ha) was 20, the “phytotoxicity rating AMBEL” value ([18]; 63 g ai/ha) was 70 and the “phytotoxicity rating AMBEL” value ([18]; 250 g ai/ha) was 95. The “Pre-emerge Herbicidal Activity, phytotoxicity rating (0-100), AMARE” value ([19]; 63 g ai/ha) was 100, the “Pre-emerge Herbicidal Activity, phytotoxicity rating (0-100), AMARE” value ([19]; 250 g ai/ha) was 100 and the “phytotoxicity rating RICE” value ([20]; 63 g ai/ha) was 20. The “phytotoxicity rating RICE” value ([20]; 250 g ai/ha) was 60, the “phytotoxicity rating CORN” value ([21]; 63 g ai/ha) was 10 and the “phytotoxicity rating CORN” value ([21]; 250 g ai/ha) was 40. For the same compound, the “Pre-emerge phytotoxicity rating (0-100), crop damage, RICE” value ([22]; 63 g ai/ha) was 70, the “Pre-emerge phytotoxicity rating (0-100), crop damage, RICE” value ([22]; 250 g ai/ha) was 80 and the “Pre-emerge phytotoxicity rating (0-100), crop damage, CORN” value ([23]; 63 g ai/ha) was 70. For the same compound, the “Pre-emerge phytotoxicity rating (0-100), crop damage, CORN” value ([23]; 250 g ai/ha) was 90.
